Values quoted from earlier work, collected in patent US20190240144A1, “EFFERVESCENT DEFERIPRONE TABLET” (priority 2016, published 2019).

Details: in vivo

CC(=O)N(O)CCCCCNC(=O)CCC(=O)N(O)CCCCCNC(=O)CCC(=O)N(O)CCCCCN [deferoxamine]
half-life (t1/2): 5-10 minus
